Measurements from patent US6376497B1, “Antifungal azole derivatives having a fluorinated vinyl group and process for preparing same” (Korea Research Institute of Chemical Technology, priority 1999, dated 2002).
Converted amounts (≈) assume the structure as drawn.

How the values were obtained:
Test in all cases: In vitro antifungal activity, microbroth dilution MIC
Assay type in all cases: cell-based
[1] = system: Aspergillus furnigatus B. 19119; settings: A furnigatus B. 19119, RPMI-1640, 35° C., 4 to 48 hours
How it was run: (§1)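 Broth microdilution adapted from NCCLS M27, in RPMI-1640 with 0.165 M MOPS, pH 7.0. Yeast or mould inoculum at 2×10^3 CFU/ml was mixed 1:1 with DMSO-derived compound solutions (200 to 0.10 μg/ml before mixing) and incubated at 35 °C for 4 to 48 h. MIC was the concentration showing no growth.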

[2] = system: Cryptococcus neoformans IFM. 40092; settings: Cry. neoformans IFM. 40092, RPMI-1640, 35° C., 4 to 48 hours
How it was run: as §1

[3] = system: Candida pseudotropicalis K. 11658; settings: C. pseudotropicalis K. 11658, RPMI-1640, 35° C., 4 to 48 hours
How it was run: as §1

[4] = system: Torulopsis glabrata B. 16205; settings: T. glabrata B. 16205, RPMI-1640, 35° C., 4 to 48 hours
How it was run: as §1

[5] = system: Candida tropicalis A. 13803; settings: C. tropicalis A. 13803, RPMI-1640, 35° C., 4 to 48 hours
How it was run: as §1

[6] = system: Candida albicans IFO. 1385; settings: C. albicans IFO. 1385, RPMI-1640, 35° C., 4 to 48 hours
How it was run: as §1

[7] = system: Trichophyton mentagrophytes B. 32663; settings: T. mentagrophytes B. 32663, RPMI-1640, 35° C., 4 to 48 hours
How it was run: as §1

[8] = system: Candida parapsitosis A. 7330; settings: C. parapsitosis A. 7330, RPMI-1640, 35° C., 4 to 48 hours
How it was run: as §1

[9] = system: Aspergillus niger A. 16404; settings: A. niger A. 16404, RPMI-1640, 35° C., 4 to 48 hours
How it was run: as §1

[10] = system: Cryptococcus neoformans B. 42419; settings: Cry. neoformans B. 42419, RPMI-1640, 35° C., 4 to 48 hours
How it was run: as §1

Candida albicans C1-2 = settings: C. albicans C1-2, RPMI-1640, 35° C., 4 to 48 hours
How it was run: as §1

[11] = system: Trichophyton mentagrophytes A. 9129; settings: T. mentagrophytes A. 9129, RPMI-1640, 35° C., 4 to 48 hours
How it was run: as §1

[12] = system: Candida albicans A. 10231; settings: C. albicans A. 10231, RPMI-1640, 35° C., 4 to 48 hours
How it was run: as §1

Candida krusei K. 11655 = settings: C. krusei K. 11655, RPMI-1640, 35° C., 4 to 48 hours
How it was run: as §1

[13] = system: Cryptococcus neoformans A. 34144; settings: Cry. neoformans A. 34144, RPMI-1640, 35° C., 4 to 48 hours
How it was run: as §1

Minimal inhibitory concentration (MIC) [1] [µg/mL]	Minimal inhibitory concentration (MIC) [2] [µg/mL]	Minimal inhibitory concentration (MIC) [3] [µg/mL]	Minimal inhibitory concentration (MIC) [4] [µg/mL]	Minimal inhibitory concentration (MIC) [5] [µg/mL]	Minimal inhibitory concentration (MIC) [6] [µg/mL]	Minimal inhibitory concentration (MIC) [7] [µg/mL]	Minimal inhibitory concentration (MIC) [8] [µg/mL]	Minimal inhibitory concentration (MIC) [9] [µg/mL]	Minimal inhibitory concentration (MIC) [10] [µg/mL]	Minimal inhibitory concentration (MIC) (Candida albicans C1-2) [µg/mL]	Minimal inhibitory concentration (MIC) [11] [µg/mL]	Minimal inhibitory concentration (MIC) [12] [µg/mL]	Minimal inhibitory concentration (MIC) (Candida krusei K. 11655) [µg/mL]	Minimal inhibitory concentration (MIC) [13] [µg/mL]	Structure (SMILES)
12.5	0.39	6.25	6.25	50.0	0.39	1.56	12.5	>100	1.56	25.0	6.25	25.0	12.5	1.56	CCOc1ccc(C=C(F)OCC2COC(Cn3ccnc3)(c3ccc(F)cc3F)O2)cc1 (mixture of isomers) [Ex. 44]
3.13	0.20	25.0	6.25	100	0.78	1.56	100	100	1.56	12.5	6.25	12.5	50.0	1.56	FC(OCC1COC(Cn2ccnc2)(c2ccc(F)cc2F)O1)=C(c1cc(Cl)cc(Cl)c1)C(F)(F)F (mixture of isomers) [Ex. 67]
3.13 (≈ 6.76 µM)	1.56 (≈ 3.37 µM)	12.5 (≈ 27 µM)	6.25 (≈ 13.5 µM)	25.0 (≈ 54 µM)	0.78 (≈ 1.68 µM)	1.56 (≈ 3.37 µM)	12.5 (≈ 27 µM)	3.13 (≈ 6.76 µM)	3.13 (≈ 6.76 µM)	6.25 (≈ 13.5 µM)	1.56 (≈ 3.37 µM)	6.25 (≈ 13.5 µM)	12.5 (≈ 27 µM)	3.13 (≈ 6.76 µM)	Cc1cccc(C=C(F)OCC2COC(Cn3ccnc3)(c3ccc(Cl)cc3Cl)O2)c1 (stereo not drawn) [Ex. 2]
50.0 (≈ 94.1 µM)	0.39 (≈ 0.734 µM)	100 (≈ 188 µM)	12.5 (≈ 23.5 µM)	25.0 (≈ 47.1 µM)	0.78 (≈ 1.47 µM)	6.25 (≈ 11.8 µM)	>100	100 (≈ 188 µM)	1.56 (≈ 2.94 µM)	6.25 (≈ 11.8 µM)	12.5 (≈ 23.5 µM)	6.25 (≈ 11.8 µM)	100 (≈ 188 µM)	1.56 (≈ 2.94 µM)	Cc1cccc(C(=C(F)OCC2COC(Cn3ccnc3)(c3ccc(Cl)cc3Cl)O2)C(F)(F)F)c1 (stereo not drawn) [Ex. 20]
